The values below come from patent US8735398B2 (Bristol-Myers Squibb Company, priority 2009, dated 2014).

This test relates to HCV 1b genotype. In words: HCV replicon assay (HCV-neo replicon cells, wild-type). The class given is cell-based, Hepatitis C virus. As to conditions: HCV 1b genotype replicon. In outline: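 Inhibition was tested in replicon-bearing cells, both wild-type HCV-neo and lines with NS5A resistance substitutions, using the O'Boyle et al. 2005 replicon method or luciferase-reporter formats.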
Background: A replicon is a self-replicating genome or part of one, used to study replication in cells.

Setting [1] is: Hepatitis C virus, class symbols, read-out: EC50 Range against HCV 1b.
The mark [2] stands for this setting: Hepatitis C virus, read-out: EC50 1b.

Where two headings read alike, the source gives them in different places.

Usually EC50 stands for the concentration needed to bring the measured effect to its halfway point. With `CC1(C(=O)N2CCC[C@H]2C(=O)Nc2ccc(-c3cnc(-c4ccc(NC(=O)[C@@H]5CCCN5C(=O)C5(C)CC5)cc4)o3)cc2)CC1` [XY-39, (2S,2′S)-N,N′-(1,3-oxazole-2,5-diyldi-4,1-phenylene)bis(1-((1-methylcyclopropyl)carbonyl)-2-pyrrolidinecarboxamide)], the EC50 under setting [1] was 100 to 999 nM.

`Cn1cccc1CC(=O)N1CCC[C@H]1C(=O)Nc1ccc(-c2cnc(-c3ccc(NC(=O)[C@@H]4CCCN4C(=O)Cc4cccn4C)cc3)o2)cc1` [XY-40, (2S,2′S)-N,N′-(1,3-oxazole-2,5-diyldi-4,1-phenylene)bis(1-((1-methyl-1H-pyrrol-2-yl)acetyl)-2-pyrrolidinecarboxamide)]: the EC50 under setting [1] fell in the range of 100 to 999 nM.

Turning to `O=C(Nc1ccc(-c2cnc(-c3ccc(NC(=O)[C@@H]4CCCN4C(=O)CN4CCCCC4)cc3)o2)cc1)[C@@H]1CCCN1C(=O)CN1CCCCC1` [XY-41, (2S,2′S)-N,N′-(1,3-oxazole-2,5-diyldi-4,1-phenylene)bis(1-(1-piperidinylacetyl)-2-pyrrolidinecarboxamide)], the EC50 (class symbols, read-out: EC50 Range against HCV 1b) lay in the range of 1000 to 10000 nM.

As to `Cn1cnc(CC(=O)N2CCC[C@H]2C(=O)Nc2ccc(-c3cnc(-c4ccc(NC(=O)[C@@H]5CCCN5C(=O)Cc5cn(C)cn5)cc4)o3)cc2)c1` [XY-42, (2S,2′S)-N,N′-(1,3-oxazole-2,5-diyldi-4,1-phenylene)bis(1-((1-methyl-1H-imidazol-4-yl)acetyl)-2-pyrrolidinecarboxamide)], the 50% effective concentration (EC50) under setting [1] was 1000 to 10000 nM.

`Cc1ccc(C)c(C(=O)N2CCC[C@H]2C(=O)Nc2ccc(-c3cnc(-c4ccc(NC(=O)[C@@H]5CCCN5C(=O)c5cc(C)ccc5C)cc4)o3)cc2)c1` [XY-43, (2S,2′S)-N,N′-(1,3-oxazole-2,5-diyldi-4,1-phenylene)bis(1-(2,5-dimethylbenzoyl)-2-pyrrolidinecarboxamide)]: the EC50 under setting [1] lay within 1000 to 10000 nM.

Consider `O=C(Nc1ccc(-c2cnc(-c3ccc(NC(=O)[C@@H]4C[C@@H](O)CN4C(=O)CC4CC4)cc3)o2)cc1)[C@@H]1C[C@@H](O)CN1C(=O)CC1CC1` [XY-44, (2S,4R,2′S,4′R)-N,N′-(1,3-oxazole-2,5-diyldi-4,1-phenylene)bis(1-(cyclopropylacetyl)-4-hydroxy-2-pyrrolidinecarboxamide)], for which the half-maximal effective concentration (EC50) under setting [1] fell in the range of 1000 to 10000 nM.

On to `O=C(Nc1ccc(-c2cnc(-c3ccc(NC(=O)[C@@H]4C[C@@H](O)CN4C(=O)Cc4cccnc4)cc3)o2)cc1)[C@@H]1C[C@@H](O)CN1C(=O)Cc1cccnc1` [XY-45, (2S,4R,2′S,4′R)-N,N′-(1,3-oxazole-2,5-diyldi-4,1-phenylene)bis(4-hydroxy-1-(3-pyridinylacetyl)-2-pyrrolidinecarboxamide)], for which the half-maximal effective concentration (EC50) under setting [1] is 1000 to 10000 nM.

On to `O=C(Nc1ccc(-c2cnc(-c3ccc(NC(=O)[C@@H]4C[C@@H](O)CN4C(=O)C4CCC4)cc3)o2)cc1)[C@@H]1C[C@@H](O)CN1C(=O)C1CCC1` [XY-46, (2S,4R,2′S,4′R)-N,N′-(1,3-oxazole-2,5-diyldi-4,1-phenylene)bis(1-(cyclobutylcarbonyl)-4-hydroxy-2-pyrrolidinecarboxamide)], for which the concentration for a half-maximal effect (EC50) under setting [1] was 100 to 999 nM.

As for `CCc1ccccc1C(=O)N1C[C@H](O)C[C@H]1C(=O)Nc1ccc(-c2cnc(-c3ccc(NC(=O)[C@@H]4C[C@@H](O)CN4C(=O)c4ccccc4CC)cc3)o2)cc1` [XY-47, (2S,4R,2′S,4′R)-N,N′-(1,3-oxazole-2,5-diyldi-4,1-phenylene)bis(1-(2-ethylbenzoyl)-4-hydroxy-2-pyrrolidinecarboxamide)], the EC50 by setting is: under setting [1], 100 to 999 nM; under setting [2], 564 nM.

For `O=C(Nc1ccc(-c2cnc(-c3ccc(NC(=O)[C@@H]4C[C@@H](O)CN4C(=O)C4CCCCC4)cc3)o2)cc1)[C@@H]1C[C@@H](O)CN1C(=O)C1CCCCC1` [XY-48, (2S,4R,2′S,4′R)-N,N′-(1,3-oxazole-2,5-diyldi-4,1-phenylene)bis(1-(cyclohexylcarbonyl)-4-hydroxy-2-pyrrolidinecarboxamide)], the EC50 under setting [1] lay in the range of 1000 to 10000 nM.

For the compound `COC(C(=O)N1C[C@H](O)C[C@H]1C(=O)Nc1ccc(-c2cnc(-c3ccc(NC(=O)[C@@H]4C[C@@H](O)CN4C(=O)C(OC)c4ccccc4)cc3)o2)cc1)c1ccccc1` (stereo partly drawn) [XY-49, (2S,4R,2′S,4′R)-N,N′-(1,3-oxazole-2,5-diyldi-4,1-phenylene)bis(4-hydroxy-1-(methoxy(phenyl)acetyl)-2-pyrrolidinecarboxamide)], the EC50 under setting [1] was in the range of 4.57 to 99 nM.

In the case of `O=C(Nc1ccc(-c2cnc(-c3ccc(NC(=O)[C@@H]4C[C@@H](O)CN4C(=O)[C@H]4CCCO4)cc3)o2)cc1)[C@@H]1C[C@@H](O)CN1C(=O)[C@H]1CCCO1` [XY-50, (2S,4R,2′S,4′R)-N,N′-(1,3-oxazole-2,5-diyldi-4,1-phenylene)bis(4-hydroxy-1-((2R)-tetrahydro-2-furanylcarbonyl)-2-pyrrolidinecarboxamide)], under setting [1], the EC50 was in the range of 1000 to 10000 nM.

Regarding `Cc1cccc(CC(=O)N2C[C@H](O)C[C@H]2C(=O)Nc2ccc(-c3cnc(-c4ccc(NC(=O)[C@@H]5C[C@@H](O)CN5C(=O)Cc5cccc(C)c5)cc4)o3)cc2)c1` [XY-51, (2S,4R,2′S,4′R)-N,N′-(1,3-oxazole-2,5-diyldi-4,1-phenylene)bis(4-hydroxy-1-((3-methylphenyl)acetyl)-2-pyrrolidinecarboxamide)], the EC50 under setting [1] fell in the range of 100 to 999 nM.

For `Cc1cc(CC(=O)N2C[C@H](O)C[C@H]2C(=O)Nc2ccc(-c3cnc(-c4ccc(NC(=O)[C@@H]5C[C@@H](O)CN5C(=O)Cc5cc(C)no5)cc4)o3)cc2)on1` [XY-52, (2S,4R,2′S,4′R)-N,N′-(1,3-oxazole-2,5-diyldi-4,1-phenylene)bis(4-hydroxy-1-((3-methyl-5-isoxazolyl)acetyl)-2-pyrrolidinecarboxamide)], the EC50 under setting [1] lay within 1000 to 10000 nM.

With `Cc1noc(C)c1C(=O)N1C[C@H](O)C[C@H]1C(=O)Nc1ccc(-c2cnc(-c3ccc(NC(=O)[C@@H]4C[C@@H](O)CN4C(=O)c4c(C)noc4C)cc3)o2)cc1` [XY-53, (2S,4R,2′S,4′R)-N,N′-(1,3-oxazole-2,5-diyldi-4,1-phenylene)bis(1-((3,5-dimethyl-4-isoxazolyl)carbonyl)-4-hydroxy-2-pyrrolidinecarboxamide)], the EC50 under setting [1] was in the range of 1000 to 10000 nM and the EC50 under setting [2] came to 8060 nM.

Regarding `O=C(Nc1ccc(-c2cnc(-c3ccc(NC(=O)[C@@H]4C[C@@H](O)CN4C(=O)c4cccs4)cc3)o2)cc1)[C@@H]1C[C@@H](O)CN1C(=O)c1cccs1` [XY-54, (2S,4R,2′S,4′R)-N,N′-(1,3-oxazole-2,5-diyldi-4,1-phenylene)bis(4-hydroxy-1-(2-thienylcarbonyl)-2-pyrrolidinecarboxamide)], the EC50 under setting [1] is 1000 to 10000 nM.

Regarding `COc1cccc(CC(=O)N2C[C@H](O)C[C@H]2C(=O)Nc2ccc(-c3cnc(-c4ccc(NC(=O)[C@@H]5C[C@@H](O)CN5C(=O)Cc5cccc(OC)c5)cc4)o3)cc2)c1` [XY-55, (2S,4R,2′S,4′R)-N,N′-(1,3-oxazole-2,5-diyldi-4,1-phenylene)bis(4-hydroxy-1-((3-methoxyphenyl)acetyl)-2-pyrrolidinecarboxamide)], the EC50 under setting [1] was in the range of 100 to 999 nM.

Consider `O=C(Nc1ccc(-c2cnc(-c3ccc(NC(=O)[C@@H]4C[C@@H](O)CN4C(=O)c4ccccc4)cc3)o2)cc1)[C@@H]1C[C@@H](O)CN1C(=O)c1ccccc1` [XY-56, (2S,4R,2′S,4′R)-N,N′-(1,3-oxazole-2,5-diyldi-4,1-phenylene)bis(1-benzoyl-4-hydroxy-2-pyrrolidinecarboxamide)], for which the half-maximal effective concentration (EC50) under setting [1] is 100 to 999 nM.
